The values that follow are results of earlier work, collected in US20220227745A1, “Compounds For Modulating FXR” (NANJING RUIJIE PHARMA TECH CO., LTD., priority 2019, published 2022).

In one series the target is T1, FXR (Homo sapiens, UniProt Q96RI1).
T1 sequence (Q96RI1 1-486): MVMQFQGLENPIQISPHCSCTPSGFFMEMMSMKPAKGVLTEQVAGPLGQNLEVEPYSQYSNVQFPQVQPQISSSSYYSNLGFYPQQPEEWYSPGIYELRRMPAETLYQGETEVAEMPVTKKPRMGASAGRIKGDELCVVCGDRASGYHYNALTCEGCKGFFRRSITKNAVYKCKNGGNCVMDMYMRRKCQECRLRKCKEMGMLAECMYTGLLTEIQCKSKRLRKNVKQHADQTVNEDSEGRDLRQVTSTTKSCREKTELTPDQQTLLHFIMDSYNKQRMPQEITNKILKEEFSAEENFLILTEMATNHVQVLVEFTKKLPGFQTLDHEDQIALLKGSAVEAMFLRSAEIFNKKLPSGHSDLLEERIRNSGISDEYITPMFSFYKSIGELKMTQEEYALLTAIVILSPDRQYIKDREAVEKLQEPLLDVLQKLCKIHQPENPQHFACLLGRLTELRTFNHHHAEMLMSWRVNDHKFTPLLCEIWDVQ
To be noted: cited from earlier work.

The conditions of series [1]: in vivo; cited from earlier work.
The subject of a further series is other nuclear receptor. Particulars: cited from earlier work.
For series [2] the following is noted: preclinical species; cited from earlier work.
For series [3] the following is noted: OCA treatment, clinical studies; cited from earlier work.

As for `CC(C)c1onc(-c2c(Cl)cccc2Cl)c1COc1ccc(/C=C/c2cccc(C(=O)O)c2)c(Cl)c1` [GW4604], the “agonistic activity to FXR” value on FXR is reported as “strong agonistic activity”. In addition, the bioavailability entry in series [1] is reported as “low bioavailability”. Consider `Cn1cc(C(=O)O)c2ccc(N3CCC(OCc4c(-c5c(Cl)cccc5Cl)noc4C4CC4)CC3)cc21` [LY-2562175], for which the “transcriptional activation of other nuclear receptor” value in the series with other nuclear receptor is listed as “didn't promote transcriptional activation of other nuclear receptor”. The “effect on LDL, triglycerides and HDL” value in series [2] is “lowered LDL and triglycerides while raising HDL”.

Turning to `CC[C@H]1[C@@H](O)[C@@H]2[C@H](CC[C@]3(C)[C@@H]([C@H](C)CCC(=O)O)CC[C@@H]23)[C@@]2(C)CC[C@@H](O)C[C@@H]12` [OCA, 6α-ethyl-chenodeoxycholic acid], in series [3], the pruritus result is listed as “may be associated with increased pruritus”.
